# Measurements as given in patent US20190071416A1, “COMPOUNDS FOR TREATMENT OF CANCER AND EPIGENETICS” (Agency For Science, Technology and Research, priority 2015, published 2019).
# Target: T1, SMYD3 (Homo sapiens, UniProt Q9H7B4)
# T1 sequence (Q9H7B4 1-428): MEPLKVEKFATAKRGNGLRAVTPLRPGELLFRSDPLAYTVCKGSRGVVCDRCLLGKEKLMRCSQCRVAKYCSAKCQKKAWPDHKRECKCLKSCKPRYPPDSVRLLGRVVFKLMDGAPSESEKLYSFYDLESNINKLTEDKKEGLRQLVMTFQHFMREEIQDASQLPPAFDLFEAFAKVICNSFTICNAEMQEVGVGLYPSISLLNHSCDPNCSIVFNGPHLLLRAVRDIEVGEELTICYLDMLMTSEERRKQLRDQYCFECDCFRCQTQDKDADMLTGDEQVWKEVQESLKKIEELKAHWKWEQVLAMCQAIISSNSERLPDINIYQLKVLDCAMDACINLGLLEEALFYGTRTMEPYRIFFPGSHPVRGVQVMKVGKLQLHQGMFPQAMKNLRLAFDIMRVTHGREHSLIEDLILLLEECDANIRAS
# Assay: SMYD3 biochemical assay (MTase-Glo, MAP3K2 peptide substrate)
# Settings: Table 3; MTase assay, MAP3K2 peptide substrate; read-out: IC50
# Outline: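 Luminescent readout of SAH production (coupled SAH→ATP conversion, MTase-Glo) after SMYD3 reacted 30 min at room temperature with 1.0 µM SAM and 10 µM MAP3K2 peptide, both final. Non-linear regression gave IC50 values.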
row,IC50 [nM],SMILES
1,390,"CCCOC(=O)N1CCN(C(=O)c2ccc3c(Cl)c4c(nc3c2)CC(Cc2ccccn2)CC4)CC1 (stereo not drawn) [A103, Propyl 4-(9-chloro-6-(pyridin-2-ylmethyl)-5,6,7,8-tetrahydroacridine-3-carbonyl)piperazine-1-carboxylate]"
2,83,"CCCOC(=O)N1CCN(C(=O)c2ccc3c(Cl)c4c(nc3c2)CC(c2ccnc(C)c2)CC4)CC1 (stereo not drawn) [A104, Propyl 4-(9-chloro-6-(2-methylpyridin-4-yl)-5,6,7,8-tetrahydroacridine-3-carbonyl)piperazine-1-carboxylate]"
3,90,"CCCOC(=O)N1CCN(C(=O)c2ccc3c(Cl)c4c(nc3c2)CC(CCN(C)C)CC4)CC1 (stereo not drawn) [A105, Propyl 4-(9-chloro-6-(2-(dimethylamino)ethyl)-5,6,7,8-tetrahydroacridine-3-carbonyl)piperazine-1-carboxylate]"
4,41,"CCCOC(=O)N1CCN(C(=O)c2ccc3c(Cl)c4c(nc3c2)CC(c2ccc(F)cn2)CC4)[C@H](C)C1 (stereo partly drawn) [A106, Propyl (3R)-4-(9-chloro-6-(5-fluoropyridin-2-yl)-5,6,7,8-tetrahydroacridine-3-carbonyl)-3-methylpiperazine-1-carboxylate]"
5,380,"CCCOC(=O)N1CCN(C(=O)c2ccc3c(Cl)c4c(nc3c2)CC(c2ncccc2C)CC4)C[C@@H]1C (stereo partly drawn) [A107, Propyl (2S)-4-(9-chloro-6-(3-methylpyridin-2-yl)-5,6,7,8-tetrahydroacridine-3-carbonyl)-2-methylpiperazine-1-carboxylate]"
6,480,"CCCOC(=O)N1CCN(C(=O)c2ccc3c(Cl)c4c(nc3c2)CC(c2ncccc2C)CC4)C[C@H]1C (stereo partly drawn) [A108, Propyl (2R)-4-(9-chloro-6-(3-methylpyridin-2-yl)-5,6,7,8-tetrahydroacridine-3-carbonyl)-2-methylpiperazine-1-carboxylate]"
7,720,"CCCOC(=O)N1CCN(C(=O)c2ccc3c(Cl)c4c(nc3c2)CC(c2ncccc2C)CC4)[C@H](C)C1 (stereo partly drawn) [A109, Propyl (3R)-4-(9-chloro-6-(3-methylpyridin-2-yl)-5,6,7,8-tetrahydroacridine-3-carbonyl)-3-methylpiperazine-1-carboxylate]"
8,840,"CCCOC(=O)N1CCN(C(=O)c2ccc3c(Cl)c4c(nc3c2)CCCC4)CC1COC (stereo not drawn) [A110, Propyl 4-(9-chloro-5,6,7,8-tetrahydroacridine-3-carbonyl)-2-(methoxymethyl)piperazine-1-carboxylate]"
9,47,"CCCOC(=O)N1CCN(C(=O)c2ccc3c(Cl)c4c(nc3c2)CC(CCN)CC4)[C@H](C)C1 (stereo partly drawn) [A111, Propyl (3R)-4-(6-(2-aminoethyl)-9-chloro-5,6,7,8-tetrahydroacridine-3-carbonyl)-3-methylpiperazine-1-carboxylate]"
10,140,"CCCOC(=O)N1CCN(C(=O)c2ccc3c(Cl)c4c(nc3c2)CC(c2cnccn2)CC4)CC1 (stereo not drawn) [A112, Propyl 4-(9-chloro-6-(pyrazin-2-yl)-5,6,7,8-tetrahydroacridine-3-carbonyl)piperazine-1-carboxylate]"

# Further lines, the compound ahead of its results:
row,SMILES,IC50 [nM]
1,"CCCOC(=O)N1CCN(C(=O)c2ccc3c(Cl)c4c(nc3c2)CCC(CCN(C)C)C4)[C@@H](C)C1 (stereo partly drawn) [A082, Propyl (3S)-4-(9-chloro-7-(2-(dimethylamino)ethyl)-5,6,7,8-tetrahydroacridine-3-carbonyl)-3-methylpiperazine-1-carboxylate]",510
2,"Cc1cc(C(=O)N2CCN(C(=O)c3ccc4c(Cl)c5c(nc4c3)CCCC5)[C@@H](C)C2)no1 [A083, (S)-(9-Chloro-5,6,7,8-tetrahydroacridin-3-yl)(2-methyl-4-(5-methylisoxazole-3-carbonyl)piperazin-1-yl)methanone]",440
3,"CCCOC(=O)N1CCN(C(=O)c2ccc3c(Cl)c4c(nc3c2)CCC(CC(=O)OC)C4)[C@@H](C)C1 (stereo partly drawn) [A084, Propyl (3S)-4-(9-chloro-7-(2-methoxy-2-oxoethyl)-5,6,7,8-tetrahydroacridine-3-carbonyl)-3-methylpiperazine-1-carboxylate]",120
4,"CCCOC(=O)N1CCN(C(=O)c2ccc3c(Cl)c4c(nc3c2)CCC(CC(=O)OC)C4)[C@H](C)C1 (stereo partly drawn) [A085, Propyl (3R)-4-(9-chloro-7-(2-methoxy-2-oxoethyl)-5,6,7,8-tetrahydroacridine-3-carbonyl)-3-methylpiperazine-1-carboxylate]",160
5,"CCCOC(=O)N1CCN(C(=O)c2ccc3c(Cl)c4c(nc3c2)CC(c2ccccn2)CC4)[C@@H](C)C1 (stereo partly drawn) [A086, Propyl (3S)-4-(9-chloro-6-(pyridin-2-yl)-5,6,7,8-tetrahydroacridine-3-carbonyl)-3-methylpiperazine-1-carboxylate]",95
6,"CCCOC(=O)N1CCN(C(=O)c2ccc3c(Cl)c4c(nc3c2)CC(c2ccccn2)CC4)[C@H](C)C1 (stereo partly drawn) [A087, Propyl (3R)-4-(9-chloro-6-(pyridin-2-yl)-5,6,7,8-tetrahydroacridine-3-carbonyl)-3-methylpiperazine-1-carboxylate]",56
7,"CCCOC(=O)N1CCN(C(=O)c2ccc3c(Cl)c4c(nc3c2)CCC(Cc2noc(C)n2)C4)CC1 (stereo not drawn) [A089, Propyl 4-(9-chloro-7-((5-methyl-1,2,4-oxadiazol-3-yl)methyl)-5,6,7,8-tetrahydroacridine-3-carbonyl)piperazine-1-carboxylate]",350
8,"CCCOC(=O)N1CCN(C(=O)c2ccc3c(Cl)c4c(nc3c2)CC(CNC(=N)N)CC4)[C@@H](C)C1 (stereo partly drawn) [A090, Propyl (3S)-4-(9-chloro-6-(guanidinomethyl)-5,6,7,8-tetrahydroacridine-3-carbonyl)-3-methylpiperazine-1-carboxylate]",350
9,"CCCOC(=O)N1CCN(C(=O)c2ccc3c(Cl)c4c(nc3c2)CC(CCNC(=N)N)CC4)[C@@H](C)C1 (stereo partly drawn) [A091, Propyl (3S)-4-(9-chloro-6-(2-guanidinoethyl)-5,6,7,8-tetrahydroacridine-3-carbonyl)-3-methylpiperazine-1-carboxylate]",140
10,"CCCOC(=O)N1CCN(C(=O)c2ccc3c(Cl)c4c(nc3c2)CC(c2ccncc2)CC4)[C@@H](C)C1 (stereo partly drawn) [A092, Propyl (3S)-4-(9-chloro-6-(pyridin-4-yl)-5,6,7,8-tetrahydroacridine-3-carbonyl)-3-methylpiperazine-1-carboxylate]",110
11,"CCCOC(=O)N1CCN(C(=O)c2ccc3c(Cl)c4c(nc3c2)CC(c2ccncc2)CC4)[C@H](C)C1 (stereo partly drawn) [A093, Propyl (3R)-4-(9-chloro-6-(pyridin-4-yl)-5,6,7,8-tetrahydroacridine-3-carbonyl)-3-methylpiperazine-1-carboxylate]",100
12,"CCCOC(=O)N1CCN(C(=O)c2ccc3c(Cl)c4c(nc3c2)CC(c2ccc(F)cn2)CC4)CC1 (stereo not drawn) [A094, Propyl 4-(9-chloro-6-(5-fluoropyridin-2-yl)-5,6,7,8-tetrahydroacridine-3-carbonyl)piperazine-1-carboxylate]",140
13,"CCCOC(=O)N1CCN(C(=O)c2ccc3c(Cl)c4c(nc3c2)CC(c2ccc(F)cn2)CC4)[C@@H](C)C1 (stereo partly drawn) [A095, Propyl (3S)-4-(9-chloro-6-(5-fluoropyridin-2-yl)-5,6,7,8-tetrahydroacridine-3-carbonyl)-3-methylpiperazine-1-carboxylate]",110
14,"CCCOC(=O)N1CCN(C(=O)c2ccc3c(Cl)c4c(nc3c2)CC(c2ncccc2C)CC4)CC1 (stereo not drawn) [A096, Propyl 4-(9-chloro-6-(3-methylpyridin-2-yl)-5,6,7,8-tetrahydroacridine-3-carbonyl)piperazine-1-carboxylate]",1200
15,"CCCOC(=O)N1CCN(C(=O)c2ccc3c(Cl)c4c(nc3c2)CC(c2ccc(F)cn2)CC4)C[C@@H]1C (stereo partly drawn) [A097, Propyl (2S)-4-(9-chloro-6-(5-fluoropyridin-2-yl)-5,6,7,8-tetrahydroacridine-3-carbonyl)-2-methylpiperazine-1-carboxylate]",170
16,"CCCOC(=O)N1CCN(C(=O)c2ccc3c(Cl)c4c(nc3c2)CC(c2ccc(F)cn2)CC4)C[C@H]1C (stereo partly drawn) [A098, Propyl (2R)-4-(9-chloro-6-(5-fluoropyridin-2-yl)-5,6,7,8-tetrahydroacridine-3-carbonyl)-2-methylpiperazine-1-carboxylate]",150
17,"CCCOC(=O)N1CCN(C(=O)c2ccc3c(Cl)c4c(nc3c2)CC(c2ncccc2F)CC4)CC1 (stereo not drawn) [A099, Propyl 4-(9-chloro-6-(3-fluoropyridin-2-yl)-5,6,7,8-tetrahydroacridine-3-carbonyl)piperazine-1-carboxylate]",590
18,"CCCOC(=O)N1CCN(C(=O)c2ccc3c(Cl)c4c(nc3c2)CC(c2ncccc2F)CC4)[C@@H](C)C1 (stereo partly drawn) [A100, Propyl (3S)-4-(9-chloro-6-(3-fluoropyridin-2-yl)-5,6,7,8-tetrahydroacridine-3-carbonyl)-3-methylpiperazine-1-carboxylate]",570
19,"CCCOC(=O)N1CCN(C(=O)c2ccc3c(Cl)c4c(nc3c2)CC(c2ncccc2C)CC4)[C@@H](C)C1 (stereo partly drawn) [A101, Propyl (3S)-4-(9-chloro-6-(3-methylpyridin-2-yl)-5,6,7,8-tetrahydroacridine-3-carbonyl)-3-methylpiperazine-1-carboxylate]",1700
20,"CCCOC(=O)N1CCN(C(=O)c2ccc3c(Cl)c4c(nc3c2)CC(CN)CC4)[C@H](C)C1 (stereo partly drawn) [A102, Propyl (3R)-4-(6-(aminomethyl)-9-chloro-5,6,7,8-tetrahydroacridine-3-carbonyl)-3-methylpiperazine-1-carboxylate]",230
